{"source": "patent US6358885B1", "about": "“Substituted phenylheterocyclic herbicides” (Mississippi State University, priority 1992, dated 2002)", "key": {"sorghum": {"tested_on": "sorghum", "test": "Test B preemergence/postemergence greenhouse plant response rating 0 to 10", "type": "in vivo, Sorghum bicolor", "conditions": "0 to 10 scale", "method_in_brief": "(§1)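 Planted seeds are treated preemergence with compound dissolved in a non-phytotoxic solvent, while postemergence applications go onto plants of two to eighteen cm. Plants stay in the greenhouse twelve to sixteen days and are then rated visually relative to controls.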"}, "barnyardgrass": {"tested_on": "barnyardgrass", "test": "Test B preemergence/postemergence greenhouse plant response rating 0 to 10", "type": "in vivo, Echinochloa crus-galli", "conditions": "0 to 10 scale", "method_in_brief": "as §1"}, "crabgrass [1]": {"tested_on": "crabgrass", "test": "Test B preemergence/postemergence greenhouse plant response rating 0 to 10", "type": "in vivo, Digitaria spp.", "conditions": "0 to 10 scale", "method_in_brief": "as §1"}, "bedstraw": {"tested_on": "bedstraw", "test": "Test C preemergence/postemergence greenhouse plant response rating 0 to 100", "type": "in vivo, Galium aparine", "conditions": "POSTEMERGENCE; for Plant response rating, Bedstraw: 0 to 100 scale", "method_in_brief": "(§2)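 Compounds in non-phytotoxic solvent applied preemergence to sandy loam one day after planting, postemergence at the 1–4 leaf stage, or to ~2.5 cm floodwater over silt loam.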"}, "wild oat": {"tested_on": "wild oat", "test": "Test C preemergence/postemergence greenhouse plant response rating 0 to 100", "type": "in vivo, Avena fatua", "conditions": "POSTEMERGENCE; for Plant response rating, Wild oat: 0 to 100 scale", "method_in_brief": "as §2"}, "giant foxtail [2]": {"tested_on": "giant foxtail", "test": "Test B preemergence/postemergence greenhouse plant response rating 0 to 10", "type": "in vivo, Setaria faberii", "conditions": "0 to 10 scale", "method_in_brief": "as §1"}, "crabgrass [3]": {"tested_on": "crabgrass", "test": "Test C preemergence/postemergence greenhouse plant response rating 0 to 100", "type": "in vivo, Digitaria sanguinalis", "conditions": "POSTEMERGENCE; for Plant response rating, Crabgrass: 0 to 100 scale", "method_in_brief": "as §2"}, "chickweed [4]": {"tested_on": "chickweed", "test": "Test B preemergence/postemergence greenhouse plant response rating 0 to 10", "type": "in vivo, Stellaria media", "conditions": "0 to 10 scale", "method_in_brief": "as §1"}, "wheat": {"tested_on": "wheat", "test": "Test B preemergence/postemergence greenhouse plant response rating 0 to 10", "type": "in vivo, Triticum aestivum", "conditions": "0 to 10 scale", "method_in_brief": "as §1"}, "corn": {"tested_on": "corn", "test": "Test B preemergence/postemergence greenhouse plant response rating 0 to 10", "type": "in vivo, Zea mays", "conditions": "0 to 10 scale", "method_in_brief": "as §1"}, "giant foxtail [5]": {"tested_on": "giant foxtail", "test": "Test C preemergence/postemergence greenhouse plant response rating 0 to 100", "type": "in vivo, Setaria faberii", "conditions": "POSTEMERGENCE; for Plant response rating, Giant foxtail: 0 to 100 scale", "method_in_brief": "as §2"}, "chickweed [6]": {"tested_on": "chickweed", "test": "Test C preemergence/postemergence greenhouse plant response rating 0 to 100", "type": "in vivo, Stellaria media", "conditions": "POSTEMERGENCE; for Plant response rating, Chickweed: 0 to 100 scale", "method_in_brief": "as §2"}, "wild buckwheat": {"tested_on": "wild buckwheat", "test": "Test C preemergence/postemergence greenhouse plant response rating 0 to 100", "type": "in vivo, Polygonum convolvulus", "conditions": "POSTEMERGENCE; for Plant response rating, Wild buckwheat: 0 to 100 scale", "method_in_brief": "as §2"}, "downy brome": {"tested_on": "downy brome", "test": "Test C preemergence/postemergence greenhouse plant response rating 0 to 100", "type": "in vivo, Bromus tectorum", "conditions": "POSTEMERGENCE; for Plant response rating Downy Brome: 0 to 100 scale", "method_in_brief": "as §2"}, "barley": {"tested_on": "barley", "test": "Test B preemergence/postemergence greenhouse plant response rating 0 to 10", "type": "in vivo, Hordeum vulgare", "conditions": "0 to 10 scale", "method_in_brief": "as §1"}, "duck salad": {"tested_on": "duck salad", "test": "Test C flood test plant response rating 0 to 100", "type": "in vivo, Heteranthera limosa", "conditions": "for Plant response rating Duck salad: flood test species listed under POSTEMERGENCE, 0 to 100 scale", "method_in_brief": "as §2"}, "rice": {"tested_on": "rice", "test": "Test C flood test plant response rating 0 to 100", "type": "in vivo, Oryza sativa", "conditions": "for Plant response rating Rice Japonica: flood test species listed under POSTEMERGENCE, 0 to 100 scale", "method_in_brief": "as §2"}, "rape": {"tested_on": "rape", "test": "Test B preemergence/postemergence greenhouse plant response rating 0 to 10", "type": "in vivo, Brassica napus", "conditions": "0 to 10 scale", "method_in_brief": "as §1"}, "[7]": {"conditions": "POSTEMERGENCE section, flood test, Rate 4 g/ha"}, "[8]": {"conditions": "Rate 16 g/ha, under POSTEMERGENCE head (flood test species)"}}}
{"molecule": "COC(=O)c1cc(-c2nn3c(c2Cl)CCCC3)c(F)cc1Cl", "note": "[Compound 43]", "values": [{"measurement": "Plant response rating, Sorghum", "setting": "sorghum; POSTEMERGENCE, Rate 50 g/ha", "value": 5}, {"measurement": "Plant response rating, Sorghum", "setting": "sorghum; PREEMERGENCE, Rate 50 g/ha", "value": 0}, {"measurement": "Plant response rating, Sorghum", "setting": "sorghum; Rate 200 g/ha, POSTEMERGENCE", "value": 8}, {"measurement": "Plant response rating, Sorghum", "setting": "sorghum; Rate 200 g/ha, PREEMERGENCE", "value": 2}, {"measurement": "Plant response rating, Barnyardgrass", "setting": "barnyardgrass; POSTEMERGENCE, Rate 50 g/ha", "value": 7}, {"measurement": "Plant response rating, Barnyardgrass", "setting": "barnyardgrass; POSTEMERGENCE, Rate 200 g/ha", "value": 9}, {"measurement": "Plant response rating, Barnyardgrass", "setting": "barnyardgrass; PREEMERGENCE, Rate 50 g/ha", "value": 0}, {"measurement": "Plant response rating, Barnyardgrass", "setting": "barnyardgrass; Rate 200 g/ha, PREEMERGENCE", "value": 2}, {"measurement": "Plant response rating, Crabgrass", "setting": "crabgrass [1]; POSTEMERGENCE, Rate 50 g/ha", "value": 4}, {"measurement": "Plant response rating, Crabgrass", "setting": "crabgrass [1]; PREEMERGENCE, Rate 50 g/ha", "value": 0}, {"measurement": "Plant response rating, Crabgrass", "setting": "crabgrass [1]; Rate 200 g/ha, PREEMERGENCE", "value": 0}, {"measurement": "Plant response rating, Bedstraw", "setting": "bedstraw; 62 g/ha", "value": 70}, {"measurement": "Plant response rating, Bedstraw", "setting": "bedstraw; 250 g/ha", "value": 100}, {"measurement": "Plant response rating (0 to 100), Bedstraw", "setting": "bedstraw; Rate 4 g/ha", "value": 40}, {"measurement": "Plant response rating (0 to 100), Bedstraw", "setting": "bedstraw; Rate 16 g/ha", "value": 60}, {"measurement": "Plant response rating, Wild oat", "setting": "wild oat; 62 g/ha", "value": 50}, {"measurement": "Plant response rating, Wild oat", "setting": "wild oat; 250 g/ha", "value": 60}, {"measurement": "Plant response rating (0 to 100), Wild oat", "setting": "wild oat; Rate 4 g/ha", "value": 20}, {"measurement": "Plant response rating (0 to 100), Wild oat", "setting": "wild oat; Rate 16 g/ha", "value": 40}, {"measurement": "Plant response rating, Giant foxtail", "setting": "giant foxtail [2]; POSTEMERGENCE, Rate 50 g/ha", "value": 5}, {"measurement": "Plant response rating, Giant foxtail", "setting": "giant foxtail [2]; PREEMERGENCE, Rate 50 g/ha", "value": 0}, {"measurement": "Plant response rating, Giant foxtail", "setting": "giant foxtail [2]; Rate 200 g/ha, POSTEMERGENCE", "value": 6}, {"measurement": "Plant response rating, Giant foxtail", "setting": "giant foxtail [2]; Rate 200 g/ha, PREEMERGENCE", "value": 0}, {"measurement": "Plant response rating, Crabgrass", "setting": "crabgrass [3]; 62 g/ha", "value": 20}, {"measurement": "Plant response rating, Crabgrass", "setting": "crabgrass [3]; 250 g/ha", "value": 60}, {"measurement": "Plant response rating (0 to 100), Crabgrass", "setting": "crabgrass [3]; Rate 4 g/ha", "value": 10}, {"measurement": "Plant response rating (0 to 100), Crabgrass", "setting": "crabgrass [3]; Rate 16 g/ha", "value": 20}, {"measurement": "Plant response rating, Chickweed", "setting": "chickweed [4]; POSTEMERGENCE, Rate 200 g/ha", "value": 10}, {"measurement": "Plant response rating, Chickweed", "setting": "chickweed [4]; PREEMERGENCE, Rate 50 g/ha", "value": 0}, {"measurement": "Plant response rating, Chickweed", "setting": "chickweed [4]; Rate 200 g/ha, PREEMERGENCE", "value": 10}, {"measurement": "Plant response rating, Wheat", "setting": "wheat; POSTEMERGENCE, Rate 50 g/ha", "value": 3}, {"measurement": "Plant response rating, Wheat", "setting": "wheat; PREEMERGENCE, Rate 50 g/ha", "value": 0}, {"measurement": "Plant response rating, Wheat", "setting": "wheat; Rate 200 g/ha, POSTEMERGENCE", "value": 8}, {"measurement": "Plant response rating, Wheat", "setting": "wheat; Rate 200 g/ha, PREEMERGENCE", "value": 2}, {"measurement": "Plant response rating, Corn", "setting": "corn; POSTEMERGENCE, Rate 50 g/ha", "value": 8}, {"measurement": "Plant response rating, Corn", "setting": "corn; POSTEMERGENCE, Rate 200 g/ha", "value": 10}, {"measurement": "Plant response rating, Corn", "setting": "corn; PREEMERGENCE, Rate 50 g/ha", "value": 0}, {"measurement": "Plant response rating, Corn", "setting": "corn; Rate 200 g/ha, PREEMERGENCE", "value": 0}, {"measurement": "Plant response rating, Giant foxtail", "setting": "giant foxtail [5]; 62 g/ha", "value": 50}, {"measurement": "Plant response rating, Giant foxtail", "setting": "giant foxtail [5]; 250 g/ha", "value": 85}, {"measurement": "Plant response rating (0 to 100), Giant foxtail", "setting": "giant foxtail [5]; Rate 4 g/ha", "value": 40}, {"measurement": "Plant response rating (0 to 100), Giant foxtail", "setting": "giant foxtail [5]; Rate 16 g/ha", "value": 50}, {"measurement": "Plant response rating, Chickweed", "setting": "chickweed [6]; 62 g/ha", "value": 90}, {"measurement": "Plant response rating, Chickweed", "setting": "chickweed [6]; 250 g/ha", "value": 100}, {"measurement": "Plant response rating (0 to 100), Chickweed", "setting": "chickweed [6]; Rate 4 g/ha", "value": 60}, {"measurement": "Plant response rating (0 to 100), Chickweed", "setting": "chickweed [6]; Rate 16 g/ha", "value": 80}, {"measurement": "Plant response rating, Wild buckwheat", "setting": "wild buckwheat; 62 g/ha", "value": 100}, {"measurement": "Plant response rating, Wild buckwheat", "setting": "wild buckwheat; 250 g/ha", "value": 100}, {"measurement": "Plant response rating (0 to 100), Wild buckwheat", "setting": "wild buckwheat; Rate 4 g/ha", "value": 60}, {"measurement": "Plant response rating (0 to 100), Wild buckwheat", "setting": "wild buckwheat; Rate 16 g/ha", "value": 100}, {"measurement": "Plant response rating Downy Brome", "setting": "downy brome; 62 g/ha", "value": 50}, {"measurement": "Plant response rating Downy Brome", "setting": "downy brome; 250 g/ha", "value": 80}, {"measurement": "Plant response rating (0 to 100), Downy Brome", "setting": "downy brome; Rate 4 g/ha", "value": 30}, {"measurement": "Plant response rating (0 to 100), Downy Brome", "setting": "downy brome; Rate 16 g/ha", "value": 40}, {"measurement": "Plant response rating, Barley", "setting": "barley; POSTEMERGENCE, Rate 50 g/ha", "value": 3}, {"measurement": "Plant response rating, Barley", "setting": "barley; POSTEMERGENCE, Rate 200 g/ha", "value": 3}, {"measurement": "Plant response rating, Barley", "setting": "barley; PREEMERGENCE, Rate 50 g/ha", "value": 0}, {"measurement": "Plant response rating, Barley", "setting": "barley; Rate 200 g/ha, PREEMERGENCE", "value": 0}, {"measurement": "Plant response rating (0 to 100), Duck salad", "setting": "duck salad; [7]", "value": 0}, {"measurement": "Plant response rating (0 to 100), Duck salad", "setting": "duck salad; [8]", "value": 0}, {"measurement": "Plant response rating Duck salad", "setting": "duck salad; 62 g/ha", "value": 25}, {"measurement": "Plant response rating Duck salad", "setting": "duck salad; 250 g/ha", "value": 45}, {"measurement": "Plant response rating (0 to 100), Rice Japonica", "setting": "rice; [7]", "value": 35}, {"measurement": "Plant response rating (0 to 100), Rice Japonica", "setting": "rice; [8]", "value": 60}, {"measurement": "Plant response rating Rice Japonica", "setting": "rice; 62 g/ha", "value": 70}, {"measurement": "Plant response rating Rice Japonica", "setting": "rice; 250 g/ha", "value": 75}, {"measurement": "Plant response rating, Rape", "setting": "rape; POSTEMERGENCE, Rate 50 g/ha", "value": 9}, {"measurement": "Plant response rating, Rape", "setting": "rape; PREEMERGENCE, Rate 50 g/ha", "value": 0}, {"measurement": "Plant response rating, Rape", "setting": "rape; Rate 200 g/ha, POSTEMERGENCE", "value": 10}, {"measurement": "Plant response rating, Rape", "setting": "rape; Rate 200 g/ha, PREEMERGENCE", "value": 9}]}
